Reference: ChEMBL document CHEMBL1201862, “PubChem BioAssay data set” (2004)
The source made the active and inactive calls.

Tests used:
[1] = target: DNA dC->dU-editing enzyme APOBEC-3G (Homo sapiens, UniProt Q9HC16); test: Dose Response confirmation of small molecule APOBEC3G DNA Deaminase Inhibitors via a fluorescence-based single-stranded DNA deaminase assay. [Related pubchem assays (depositor defined):AID493012, AID493028]; format: functional
[2] = target: Peroxisome proliferator-activated receptor gamma/Nuclear receptor coactivator 2 (Homo sapiens, UniProt P37231); format: functional;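 note: agonist potency for raising coactivator recruitment to the receptor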
[3] = target: Peroxisome proliferator-activated receptor gamma/Nuclear receptor coactivator 1 (Homo sapiens, UniProt P37231); format: functional;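 note: agonist potency as compounds enhance coactivator SRC-1 recruitment to PPARgamma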
[4] = target: Peroxisome proliferator-activated receptor gamma/Nuclear receptor coactivator 3 (Homo sapiens, UniProt P37231); format: functional;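 note: agonist potency for raising coactivator recruitment to the receptor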
cells [5] = format: functional, cell-based
CAAX prenyl protease 2 = target: T1, CAAX prenyl protease 2 (Saccharomyces cerevisiae S288c, UniProt Q03530); format: biochemical
T1 sequence (Q03530 whole entry): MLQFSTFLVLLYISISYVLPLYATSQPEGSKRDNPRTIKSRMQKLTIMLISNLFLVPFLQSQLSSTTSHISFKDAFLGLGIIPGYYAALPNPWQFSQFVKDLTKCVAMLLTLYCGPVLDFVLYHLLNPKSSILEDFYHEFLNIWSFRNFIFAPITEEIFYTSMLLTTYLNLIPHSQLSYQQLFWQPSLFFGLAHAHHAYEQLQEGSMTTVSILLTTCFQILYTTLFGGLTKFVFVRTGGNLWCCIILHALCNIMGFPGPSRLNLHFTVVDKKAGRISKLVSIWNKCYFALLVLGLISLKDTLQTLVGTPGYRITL

cells [6] = format: functional, cell-based; remark: listed apart in the source
Melanocortin receptor 4 = Melanocortin receptor 4 (Homo sapiens, UniProt P32245); format: functional, cell-based;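 note: Cell-based assay with luminescence read-out, confirmatory dose-response testing for agonist activity of biased ligands at MC4R; human U2OS cells with tagged receptor and beta-arrestin; potency of agonists that increase receptor coupling to beta-arrestin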
Prothrombin = Prothrombin (Bos taurus, UniProt P00735); test: thrombin protease inhibitors – biochemical, fluorescence polarization, uHTS hits, dose response (AID 602369); format: functional
[7] = target: 72 kDa type IV collagenase (Homo sapiens, UniProt P08253); test: Dose Response validation of uHTS RPN11 inhibitor hits using a MMP-2 Fluorescence assay.; format: functional
[8] = target: 26S proteasome non-ATPase regulatory subunit 14 (Homo sapiens, UniProt O00487); test: inhibition of proteasome subunit RPN11 – biochemical, fluorescence polarization, uHTS hits, confirmation (AID 602368); format: functional
[9] = viability of uninfected HEp-2 cells – cell-based, HTS, cytotoxicity control for RSV inhibitor project, dose response (AID 2410); format: functional; details: human respiratory syncytial virus
[10] = target: T2, RNA-binding protein pos-1 (Caenorhabditis elegans, UniProt G5EF15); test: disruptors of C. elegans POS-1 RNA interaction – biochemical, fluorescence polarization, dose response (AID 1964);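 note: purified POS-1 fused to maltose binding protein made in E. coli; potency of compounds blocking POS-1 binding to fluorescent RNA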
T2 sequence (G5EF15 whole entry): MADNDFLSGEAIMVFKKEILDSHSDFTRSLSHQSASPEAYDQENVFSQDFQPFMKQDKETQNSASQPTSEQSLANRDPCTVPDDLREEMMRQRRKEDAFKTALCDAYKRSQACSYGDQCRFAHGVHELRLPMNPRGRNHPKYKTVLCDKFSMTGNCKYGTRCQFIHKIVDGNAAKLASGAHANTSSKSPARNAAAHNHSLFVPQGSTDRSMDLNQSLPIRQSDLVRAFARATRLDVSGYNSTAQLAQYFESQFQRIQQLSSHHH

[11] = target: T3, Endoribonuclease toxin MazF (Escherichia coli K-12, UniProt P0AE70); test: activation of MazEF endoribonuclease cleavage – biochemical, fluorescence, single-stranded RNA substrate, uHTS hits, dose response (AID 588481); format: functional
T3 sequence (P0AE70 whole entry): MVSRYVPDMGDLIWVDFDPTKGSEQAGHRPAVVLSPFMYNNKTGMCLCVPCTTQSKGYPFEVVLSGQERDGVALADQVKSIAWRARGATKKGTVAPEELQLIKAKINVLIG

[12] = target: T3, Endoribonuclease toxin MazF; test: substrate-only fluorescence increase artefacts – biochemical, single-stranded RNase substrate, counter-screen for MazEF activator project, dose response (AID 588502); format: functional
[13] = target: T4, Zinc finger protein mex-5 (Caenorhabditis elegans, UniProt Q9XUB2); test: potency of MEX-5 RNA-binding blockers – biochemical, C. elegans, fluorescence polarization, dose response (AID 1960)
T4 sequence (Q9XUB2 whole entry): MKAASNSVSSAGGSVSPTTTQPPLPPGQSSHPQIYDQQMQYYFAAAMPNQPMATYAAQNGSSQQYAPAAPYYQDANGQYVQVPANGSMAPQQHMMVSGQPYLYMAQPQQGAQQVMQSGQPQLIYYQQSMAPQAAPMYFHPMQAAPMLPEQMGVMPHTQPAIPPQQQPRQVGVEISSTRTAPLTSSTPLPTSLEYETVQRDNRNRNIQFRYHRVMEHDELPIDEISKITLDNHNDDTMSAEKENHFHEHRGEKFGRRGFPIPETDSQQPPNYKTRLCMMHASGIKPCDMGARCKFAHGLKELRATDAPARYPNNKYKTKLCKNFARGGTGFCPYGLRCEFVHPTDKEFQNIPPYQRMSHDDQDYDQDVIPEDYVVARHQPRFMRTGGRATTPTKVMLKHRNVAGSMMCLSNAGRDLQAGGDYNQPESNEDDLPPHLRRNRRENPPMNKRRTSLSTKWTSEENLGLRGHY

[14] = A cytotoxicity screen of small molecule inhibitors of the PhoP region in Salmonella typhi identified in the primary screen. [Related pubchem assays: 1850, 1864, 1985 ]; format: functional
[15] = target: T5, Mannose-6-phosphate isomerase (Homo sapiens, UniProt P34949); test: MPI inhibition at elevated mannose 6-phosphate – biochemical, fluorescence intensity, high mannose 6-phosphate, primary screen (AID 1220)
T5 sequence (P34949 whole entry): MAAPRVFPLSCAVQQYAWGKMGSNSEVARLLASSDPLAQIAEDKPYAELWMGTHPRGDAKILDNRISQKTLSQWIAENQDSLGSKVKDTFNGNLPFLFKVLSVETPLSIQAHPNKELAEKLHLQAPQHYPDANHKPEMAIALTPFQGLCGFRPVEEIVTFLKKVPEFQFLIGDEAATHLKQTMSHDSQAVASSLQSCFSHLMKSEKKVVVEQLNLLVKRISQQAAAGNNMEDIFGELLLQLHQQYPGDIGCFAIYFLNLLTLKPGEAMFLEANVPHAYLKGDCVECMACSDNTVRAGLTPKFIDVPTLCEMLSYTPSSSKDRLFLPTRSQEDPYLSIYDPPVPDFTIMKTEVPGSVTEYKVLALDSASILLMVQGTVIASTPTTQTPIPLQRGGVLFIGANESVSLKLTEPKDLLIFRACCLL

[16] = target: T6, Heat shock factor protein 1 (Mus musculus, UniProt P38532); test: enhancement of HSF1-driven luciferase signal – cell-based, NIH3T3, luminescence, dose retest, confirmation (AID 435004); format: functional;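 note: stress induced by proteasome inhibitor MG132 added 30 min after compound; luciferase reporter driven by HSF1 response element in NIH3T3 cells; actives raise luminescence as potentiators of the MG132 stress response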
T6 sequence (P38532 whole entry): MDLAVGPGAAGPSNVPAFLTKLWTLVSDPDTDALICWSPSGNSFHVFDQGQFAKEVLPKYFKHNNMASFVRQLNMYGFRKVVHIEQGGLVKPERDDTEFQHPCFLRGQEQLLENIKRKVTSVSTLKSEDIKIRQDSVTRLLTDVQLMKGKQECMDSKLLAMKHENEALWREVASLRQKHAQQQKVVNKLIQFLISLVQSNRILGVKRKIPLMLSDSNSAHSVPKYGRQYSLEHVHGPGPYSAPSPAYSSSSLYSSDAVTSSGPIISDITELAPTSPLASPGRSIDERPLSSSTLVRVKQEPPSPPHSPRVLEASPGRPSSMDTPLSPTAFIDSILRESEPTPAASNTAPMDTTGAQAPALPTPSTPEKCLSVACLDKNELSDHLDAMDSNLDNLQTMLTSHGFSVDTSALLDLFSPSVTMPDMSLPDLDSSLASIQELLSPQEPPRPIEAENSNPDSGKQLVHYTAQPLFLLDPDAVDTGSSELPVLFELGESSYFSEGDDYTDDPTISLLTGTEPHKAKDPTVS

Protein skinhead-1 = target: T7, Protein skinhead-1 (Caenorhabditis elegans, UniProt P34707); format: functional
T7 sequence (P34707 whole entry): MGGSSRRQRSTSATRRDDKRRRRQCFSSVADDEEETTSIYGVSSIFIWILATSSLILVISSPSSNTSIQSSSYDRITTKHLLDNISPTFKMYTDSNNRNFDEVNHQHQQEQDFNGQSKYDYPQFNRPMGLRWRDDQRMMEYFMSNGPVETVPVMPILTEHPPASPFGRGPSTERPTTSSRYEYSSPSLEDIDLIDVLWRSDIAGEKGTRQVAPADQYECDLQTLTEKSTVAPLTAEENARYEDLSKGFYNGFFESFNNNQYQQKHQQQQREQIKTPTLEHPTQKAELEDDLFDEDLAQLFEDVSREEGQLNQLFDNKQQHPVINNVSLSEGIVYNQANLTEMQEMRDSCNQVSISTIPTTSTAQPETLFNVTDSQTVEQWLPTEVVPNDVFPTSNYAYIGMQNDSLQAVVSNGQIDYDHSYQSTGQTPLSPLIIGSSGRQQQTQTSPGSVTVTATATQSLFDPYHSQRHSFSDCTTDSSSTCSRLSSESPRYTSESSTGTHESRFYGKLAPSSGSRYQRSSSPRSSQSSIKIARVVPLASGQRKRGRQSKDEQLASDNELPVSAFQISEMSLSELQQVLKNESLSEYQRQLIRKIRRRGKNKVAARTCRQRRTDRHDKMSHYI

H9c2 = test: cells; format: functional, cell-based; details: Rattus norvegicus, H9c2, Myocardium;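 note: confirmatory concentration-response retest of ultra-high-throughput screening hits for modulation of myocardial damage; cell death induced by hydrogen peroxide oxidative stress; compound pretreatment for 60 min then peroxide exposure for 2 h; potency is for protecting the cells against peroxide damage rather than for killing them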

72 kDa type IV collagenase, sequence (P08253 whole entry): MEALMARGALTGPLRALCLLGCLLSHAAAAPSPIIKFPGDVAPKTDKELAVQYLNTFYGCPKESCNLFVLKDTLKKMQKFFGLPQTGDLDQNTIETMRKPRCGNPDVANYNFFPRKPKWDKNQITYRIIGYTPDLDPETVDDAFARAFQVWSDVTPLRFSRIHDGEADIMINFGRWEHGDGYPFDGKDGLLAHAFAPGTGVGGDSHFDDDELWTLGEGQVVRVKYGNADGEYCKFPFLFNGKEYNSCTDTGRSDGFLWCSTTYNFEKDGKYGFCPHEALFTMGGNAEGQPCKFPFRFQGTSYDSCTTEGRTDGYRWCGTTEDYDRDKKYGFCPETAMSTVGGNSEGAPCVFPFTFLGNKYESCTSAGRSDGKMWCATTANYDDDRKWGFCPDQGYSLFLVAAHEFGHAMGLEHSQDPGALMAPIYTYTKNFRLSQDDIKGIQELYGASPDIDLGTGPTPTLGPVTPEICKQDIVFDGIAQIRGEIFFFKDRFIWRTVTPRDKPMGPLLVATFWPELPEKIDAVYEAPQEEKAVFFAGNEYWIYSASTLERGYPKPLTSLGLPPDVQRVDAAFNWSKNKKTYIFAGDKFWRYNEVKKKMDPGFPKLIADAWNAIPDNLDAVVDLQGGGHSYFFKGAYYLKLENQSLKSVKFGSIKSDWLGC
Melanocortin receptor 4, sequence (P32245 whole entry): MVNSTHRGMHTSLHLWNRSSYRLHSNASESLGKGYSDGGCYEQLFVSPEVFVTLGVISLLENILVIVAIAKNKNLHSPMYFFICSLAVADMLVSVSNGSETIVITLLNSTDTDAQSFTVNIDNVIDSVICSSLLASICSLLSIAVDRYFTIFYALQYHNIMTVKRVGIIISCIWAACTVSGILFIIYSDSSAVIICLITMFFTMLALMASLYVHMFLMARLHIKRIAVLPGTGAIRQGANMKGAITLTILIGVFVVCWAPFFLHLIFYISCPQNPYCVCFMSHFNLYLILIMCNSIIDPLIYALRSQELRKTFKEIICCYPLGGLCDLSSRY
Peroxisome proliferator-activated receptor gamma/Nuclear receptor coactivator 2, sequence (P37231 whole entry): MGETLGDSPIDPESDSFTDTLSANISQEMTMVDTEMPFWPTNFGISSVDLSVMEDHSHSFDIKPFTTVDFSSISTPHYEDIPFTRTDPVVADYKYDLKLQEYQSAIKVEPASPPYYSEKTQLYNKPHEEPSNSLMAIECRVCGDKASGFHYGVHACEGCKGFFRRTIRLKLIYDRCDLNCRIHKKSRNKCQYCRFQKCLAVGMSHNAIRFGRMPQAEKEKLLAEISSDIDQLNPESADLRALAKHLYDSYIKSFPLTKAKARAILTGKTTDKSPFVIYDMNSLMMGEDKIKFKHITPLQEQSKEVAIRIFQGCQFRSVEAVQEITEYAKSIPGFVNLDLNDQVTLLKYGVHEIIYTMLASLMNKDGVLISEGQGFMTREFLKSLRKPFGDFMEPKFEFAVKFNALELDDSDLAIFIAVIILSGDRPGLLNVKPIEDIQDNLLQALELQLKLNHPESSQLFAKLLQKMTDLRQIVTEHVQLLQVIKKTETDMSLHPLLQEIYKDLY
Peroxisome proliferator-activated receptor gamma/Nuclear receptor coactivator 2, sequence (Q15596 whole entry, further chain): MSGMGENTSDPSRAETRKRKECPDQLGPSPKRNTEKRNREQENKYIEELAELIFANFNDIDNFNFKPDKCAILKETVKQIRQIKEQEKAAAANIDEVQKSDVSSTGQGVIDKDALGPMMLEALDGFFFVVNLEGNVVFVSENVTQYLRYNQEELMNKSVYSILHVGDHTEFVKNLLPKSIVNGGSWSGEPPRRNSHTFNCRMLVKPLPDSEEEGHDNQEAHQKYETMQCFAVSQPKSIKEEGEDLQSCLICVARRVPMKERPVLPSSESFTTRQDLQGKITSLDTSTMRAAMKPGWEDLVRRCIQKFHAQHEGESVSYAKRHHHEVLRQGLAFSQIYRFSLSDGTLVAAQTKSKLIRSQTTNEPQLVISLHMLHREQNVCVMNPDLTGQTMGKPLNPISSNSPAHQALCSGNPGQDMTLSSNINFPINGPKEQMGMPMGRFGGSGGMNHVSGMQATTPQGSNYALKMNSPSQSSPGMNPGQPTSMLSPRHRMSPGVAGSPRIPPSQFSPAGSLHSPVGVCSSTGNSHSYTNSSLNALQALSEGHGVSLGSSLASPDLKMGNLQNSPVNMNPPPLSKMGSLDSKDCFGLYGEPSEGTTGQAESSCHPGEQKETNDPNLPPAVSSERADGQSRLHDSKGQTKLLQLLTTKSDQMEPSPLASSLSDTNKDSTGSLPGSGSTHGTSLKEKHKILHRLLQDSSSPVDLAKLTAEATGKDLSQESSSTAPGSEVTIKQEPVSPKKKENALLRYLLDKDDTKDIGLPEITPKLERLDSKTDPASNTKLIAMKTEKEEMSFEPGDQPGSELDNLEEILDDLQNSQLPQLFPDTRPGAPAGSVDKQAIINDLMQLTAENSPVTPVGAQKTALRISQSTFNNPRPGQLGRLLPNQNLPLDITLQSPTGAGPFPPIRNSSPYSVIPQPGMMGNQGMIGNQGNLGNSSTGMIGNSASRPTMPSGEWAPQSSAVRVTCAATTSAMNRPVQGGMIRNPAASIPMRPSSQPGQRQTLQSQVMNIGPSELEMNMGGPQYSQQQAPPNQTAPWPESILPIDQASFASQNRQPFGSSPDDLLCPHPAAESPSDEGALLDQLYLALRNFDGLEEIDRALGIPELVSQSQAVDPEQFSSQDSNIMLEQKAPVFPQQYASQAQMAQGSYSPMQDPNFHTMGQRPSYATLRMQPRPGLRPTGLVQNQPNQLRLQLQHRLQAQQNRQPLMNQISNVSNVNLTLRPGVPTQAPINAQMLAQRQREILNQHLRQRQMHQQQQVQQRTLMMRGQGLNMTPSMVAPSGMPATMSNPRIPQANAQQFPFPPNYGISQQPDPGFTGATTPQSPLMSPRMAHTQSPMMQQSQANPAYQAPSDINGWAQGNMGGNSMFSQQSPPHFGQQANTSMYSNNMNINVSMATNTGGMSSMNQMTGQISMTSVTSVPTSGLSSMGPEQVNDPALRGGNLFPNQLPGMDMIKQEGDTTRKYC
Peroxisome proliferator-activated receptor gamma/Nuclear receptor coactivator 3, sequence (P37231 whole entry): as the sequence (P37231 whole entry) above
Peroxisome proliferator-activated receptor gamma/Nuclear receptor coactivator 3, sequence (Q9Y6Q9 whole entry, further chain): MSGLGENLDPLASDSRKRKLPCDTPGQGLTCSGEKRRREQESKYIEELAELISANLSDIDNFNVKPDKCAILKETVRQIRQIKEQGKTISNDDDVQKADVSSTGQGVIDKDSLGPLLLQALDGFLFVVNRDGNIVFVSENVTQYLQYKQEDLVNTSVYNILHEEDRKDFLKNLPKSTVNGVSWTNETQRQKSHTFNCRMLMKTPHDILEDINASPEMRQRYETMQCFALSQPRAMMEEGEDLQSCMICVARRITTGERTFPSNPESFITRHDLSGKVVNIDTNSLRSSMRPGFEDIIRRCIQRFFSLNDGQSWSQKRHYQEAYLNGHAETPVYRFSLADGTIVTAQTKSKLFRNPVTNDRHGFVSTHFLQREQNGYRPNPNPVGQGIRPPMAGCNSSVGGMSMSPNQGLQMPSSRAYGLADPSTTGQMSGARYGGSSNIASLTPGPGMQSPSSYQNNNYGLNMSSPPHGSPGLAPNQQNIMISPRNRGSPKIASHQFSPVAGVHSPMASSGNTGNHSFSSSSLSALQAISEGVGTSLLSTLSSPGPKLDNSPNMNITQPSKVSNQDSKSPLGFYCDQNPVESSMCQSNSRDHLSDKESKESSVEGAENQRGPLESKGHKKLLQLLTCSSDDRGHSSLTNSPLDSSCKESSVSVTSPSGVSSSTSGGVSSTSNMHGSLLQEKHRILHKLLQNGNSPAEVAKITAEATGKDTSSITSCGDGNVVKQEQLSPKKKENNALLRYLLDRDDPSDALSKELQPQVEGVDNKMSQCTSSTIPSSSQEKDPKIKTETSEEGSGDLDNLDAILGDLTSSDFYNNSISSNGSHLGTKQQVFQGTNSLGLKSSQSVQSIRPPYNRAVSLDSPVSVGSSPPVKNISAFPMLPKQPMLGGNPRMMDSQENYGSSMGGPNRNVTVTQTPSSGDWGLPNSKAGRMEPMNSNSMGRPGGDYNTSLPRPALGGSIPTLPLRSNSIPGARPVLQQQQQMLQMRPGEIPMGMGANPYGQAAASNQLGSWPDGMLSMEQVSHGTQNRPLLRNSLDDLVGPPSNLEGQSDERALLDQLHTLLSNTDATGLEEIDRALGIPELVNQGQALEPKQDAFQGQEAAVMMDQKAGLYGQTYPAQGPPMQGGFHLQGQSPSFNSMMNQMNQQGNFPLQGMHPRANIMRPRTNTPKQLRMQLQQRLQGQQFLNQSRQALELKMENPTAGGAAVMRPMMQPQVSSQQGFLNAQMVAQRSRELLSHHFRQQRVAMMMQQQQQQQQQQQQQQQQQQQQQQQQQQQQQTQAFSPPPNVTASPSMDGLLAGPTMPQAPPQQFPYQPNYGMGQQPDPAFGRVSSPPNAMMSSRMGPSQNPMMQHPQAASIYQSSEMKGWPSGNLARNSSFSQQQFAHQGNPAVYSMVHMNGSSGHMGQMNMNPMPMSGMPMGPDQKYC

With `Cc1cc(C)c(C#N)c(=N)o1` the IC50 [1] was 37.4 µM (active).
For `Cc1nnc(SCc2ccccc2)n1N`, the EC50 [2] was > 79.4 µM (not active), the EC50 [3] was > 79.4 µM (not active) and the EC50 [4] was > 79.4 µM (not active).
With `O=C(Nc1cccc(-c2cn3ccccc3n2)c1)C1CC1` the EC50 (cells [5]) was > 350 µM (not active), the AC50 (CAAX prenyl protease 2) was 31.9 µM (active) and the EC50 (cells [6]) was > 350 µM (not active).
In the case of `C1COCCO1.Cc1cc(C)c2nc(Nc3nc(O)cc(-c4ccccc4)n3)nc(C)c2c1`, the EC50 (Melanocortin receptor 4) was > 89.2 µM (inactive).
For `CCOc1ccc(C(=O)CCC(=O)N2CCN(c3ncccn3)CC2)cc1`, the IC50 (Prothrombin) was 34.3 µM (active), the IC50 [7] was 83.5 µM (active) and the IC50 [8] was 38.6 µM (active).
In the case of `COc1cccc(C(=O)Nc2nnc(SCC(=O)NC3CCCC3)s2)c1`, the AC50 (CAAX prenyl protease 2) was 52.3 µM (active).
In the case of `CCOC(=O)c1cc(-c2ccccc2)sc1NC(=O)C(C)Sc1nnnn1C` (stereo unspecified), the AC50 (CAAX prenyl protease 2) was 7.54 µM (active) and the CC50 [9] was > 50 µM (active).
For `Oc1nc2ccccc2nc1/C=C/c1ccc(F)cc1`, the EC50 [10] was 41.9 µM (inconclusive), the EC50 [11] was 15.6 µM (active) and the EC50 [12] was > 99 µM (inactive). For the same compound, the EC50 [13] was > 300 µM (not active).
For `CCS(=O)(=O)N1CCN(C2CCC(c3ccccc3)CC2)CC1` (stereo unspecified), the EC50 [2] was > 79.4 µM (not active), the EC50 [3] was > 79.4 µM (not active) and the EC50 [14] was > 50 µM (active). For the same compound, the EC50 [4] was > 79.4 µM (not active).
In the case of `O=C(c1ccc(COc2ccc(Br)cc2)o1)N1N=C(C(F)F)CC1(O)C(F)F` (stereo unspecified), the EC50 (Melanocortin receptor 4) was > 89.2 µM (inactive).
With `COCc1n[nH]c2c1C(c1cc(OC)c(O)c(OC)c1)C(C#N)=C(N)O2` (stereo unspecified) the EC50 [11] was > 99 µM (inactive), the EC50 [12] was > 99 µM (inactive) and the IC50 [15] was > 50 µM (not active).
For `COc1cccc(NC(=S)NC(=O)c2c(Cl)c(C)nn2C)c1`, the EC50 [2] was > 79.4 µM (not active), the EC50 [3] was > 79.4 µM (not active) and the EC50 [4] was > 79.4 µM (not active). For the same compound, the EC50 [16] was 63.7 µM (active).
With `CSc1cc(-c2ccc(Cl)cc2)n(Cc2ccccc2)c(=O)c1C#N` the EC50 [2] was 41.4 µM (not active), the EC50 [3] was 44.7 µM (not active) and the EC50 [4] was 80.7 µM (not active).
With `CC(C)Oc1ccc(/C=C(\NC(=O)/C=C/c2ccco2)C(=O)NCCc2nc3ccccc3[nH]2)cc1` the IC50 (Prothrombin) was 55.6 µM (active), the IC50 [7] was > 100 µM (inactive) and the IC50 [8] was 57.5 µM (active).
For `COc1ccc(-c2ccc(/C=C3/C(=N)N4C(C)=CSC4=NC3=O)o2)c([N+](=O)[O-])c1`, the IC50 (Protein skinhead-1) was > 100 µM (inactive), the EC50 [11] was > 99 µM (inactive) and the EC50 [12] was 29 µM (inactive).
In the case of `COc1ccc(-c2nc3ccccc3c(=O)n2NC(=S)N(C)C)cc1`, the IC50 [1] was 35.1 µM (active).
In the case of `CC(=O)c1ccc(N2CCN(C(=O)c3cc4c(C)nc5ccccc5c4o3)CC2)cc1`, the EC50 [11] was > 99 µM (inactive) and the EC50 [12] was 30.7 µM (inactive).
For `Cc1ccccc1C(=O)/C=C1/SCC(=O)N1C`, the IC50 (Prothrombin) was 37.3 µM (active), the IC50 [7] was > 100 µM (inactive) and the IC50 [8] was 18.9 µM (active).
In the case of `CC1(C)CC(=O)C(=NNc2cc3c(cc2[N+](=O)[O-])OCCO3)C(=O)C1`, the EC50 [11] was > 99 µM (inactive) and the EC50 [12] was 29.6 µM (inactive).
With `Cc1cccc(NC(=S)NC(=O)C(c2ccccc2)c2ccccc2)n1` the EC50 (Melanocortin receptor 4) was > 89.2 µM (inactive).
For `COc1ccc(-c2cc(NC(C)=O)c3ncc(-c4ccc(OC)c(OC)c4)n3c2)cc1OC`, the IC50 (H9c2) was > 79 µM (inactive) and the EC50 (Melanocortin receptor 4) was > 89.2 µM (inactive).
For `Cc1cccnc1C(c1ccc(F)cc1)N(C)C(=O)C1CCN(CCOc2ccc(Cl)cc2Cl)CC1` (stereo unspecified), the EC50 (Melanocortin receptor 4) was > 89.2 µM (inactive).
